Consider three compounds from ChEMBL document CHEMBL1833797, “Microwave assisted synthesis and antimicrobial evaluation of new fused pyran derivatives bearing 2-morpholinoquinoline nucleus” (2011).

Structures are written as SMILES. Values after ≈ are worked out from the molar mass of the structure shown.

One assay relates to Aspergillus fumigatus. In words: Antifungal activity against Aspergillus fumigatus MTCC 3008 for 48 hrs by microdilution method. The conditions noted are these: MTCC 3008, 48 h. In kind it is functional. (In general: Broth dilution looks for growth in wells or tubes with falling amounts of substance.)
Another assay deals with Escherichia coli. In words: Antimicrobial activity against Escherichia coli MTCC 443 for 24 hrs by microdilution method. The conditions noted are these: MTCC 443, 24 h. In kind it is functional.
The next assay concerns Vibrio cholerae. Kind of assay: Antimicrobial activity against Vibrio cholerae MTCC 3906 for 24 hrs by microdilution method. Format: functional. The conditions noted are these: MTCC 3906, 24 h.
The next assay concerns Streptococcus pneumoniae. In words: Antimicrobial activity against Streptococcus pneumoniae MTCC 1936 for 24 hrs by microdilution method. In kind it is functional. To be noted: MTCC 1936, 24 h.
The subject of the next assay is Clostridium tetani. Kind of assay: Antimicrobial activity against Clostridium tetani MTCC 449 for 24 hrs by microdilution method. In kind it is functional. To be noted: MTCC 449, 24 h.
The next assay has as its system Salmonella typhi. In words: Antimicrobial activity against Salmonella typhi MTCC 98 for 24 hrs by microdilution method. The conditions noted are these: Salmonella enterica, MTCC 98, 24 h. Format: functional, Salmonella enterica subsp. enterica serovar Typhi.
Another assay has as its system Bacillus subtilis. Kind of assay: Antimicrobial activity against Bacillus subtilis MTCC 441 for 24 hrs by microdilution method. Format: functional. The conditions noted are these: MTCC 441, 24 h.
The test system of another assay is Candida albicans. Kind of assay: Antifungal activity against Candida albicans MTCC 227 for 48 hrs by microdilution method. In kind it is functional. The conditions noted are these: MTCC 227, 48 h.

A word on the MIC: it is the lowest concentration found to suppress growth. Read a low MIC as a more susceptible organism.

For `Cc1ccc2nc(N3CCOCC3)c(C3C(C#N)=C(N)Oc4cc(O)ccc43)cc2c1` (centres undefined), the MIC against Aspergillus fumigatus was more than 1000 µg/mL; with Escherichia coli, 200 µg/mL (≈ 483 µM); against Vibrio cholerae, 200 µg/mL (≈ 483 µM); in the assay with Streptococcus pneumoniae it was 500 µg/mL (≈ 1210 µM); against Clostridium tetani it was 200 µg/mL (≈ 483 µM); against Salmonella typhi, 200 µg/mL (≈ 483 µM). In addition, the figures for the MIC with Bacillus subtilis and with Candida albicans were 500 µg/mL (≈ 1210 µM) and more than 1000 µg/mL, respectively.
As for `N#CC1=C(N)OC2=C(C(=O)c3ccccc3C2=O)C1c1cc2ccccc2nc1N1CCOCC1` (centres undefined), the minimum inhibitory concentration (MIC) in the assay on Aspergillus fumigatus is more than 1000 µg/mL; against Escherichia coli, 200 µg/mL (≈ 431 µM); with Vibrio cholerae, 500 µg/mL (≈ 1080 µM); against Streptococcus pneumoniae it was 500 µg/mL (≈ 1080 µM); in the assay on Clostridium tetani it was 500 µg/mL (≈ 1080 µM); in the assay on Salmonella typhi, 12.5 µg/mL (≈ 26.9 µM). Further, the MIC with Bacillus subtilis turned out to be 500 µg/mL (≈ 1080 µM); in the assay on Candida albicans it was 100 µg/mL (≈ 215 µM).
Consider `COc1ccc2nc(N3CCOCC3)c(C3C(C#N)=C(N)Oc4c3ccc3ccccc43)cc2c1` (centres undefined), for which the MIC in the assay on Aspergillus fumigatus was found to be 1000 µg/mL (≈ 2150 µM); against Escherichia coli, 200 µg/mL (≈ 431 µM); against Vibrio cholerae it was 200 µg/mL (≈ 431 µM); in the assay on Streptococcus pneumoniae, 250 µg/mL (≈ 538 µM); against Clostridium tetani, 250 µg/mL (≈ 538 µM); against Salmonella typhi it was 100 µg/mL (≈ 215 µM). Further, the MIC against Bacillus subtilis is 250 µg/mL (≈ 538 µM); against Candida albicans, 100 µg/mL (≈ 215 µM).
